{"source": "patent US10759796B2", "about": "“CXCR4 inhibitors and uses thereof” (X4 Pharmaceuticals, Inc., priority 2016, dated 2020)"}
{"system": "not listed separately", "assay": "Fraction of drug unbound to plasma proteins, mouse", "type": "in vitro ADME", "conditions": "Mouse plasma proteins (Table 9); read-out: Fu (p) %"}
{"smiles": "Cc1cccnc1[C@@H]1CCC[C@H](c2cn3c(N4CCN(C)CC4)cccc3n2)N1", "note": "[Compound I-187]", "fraction unbound": 0.249}
{"smiles": "Cc1cccnc1[C@@H]1CCC[C@H](c2nc3cccc(N4CCN(C)CC4)n3c2Cl)N1C", "note": "[Compound I-18]", "fraction unbound": 0.054}
{"smiles": "Cc1cccnc1[C@@H]1CCC[C@H](c2nc3cccc(N4CCC(N(C)C)CC4)n3c2Cl)N1C", "note": "[Compound I-114]", "fraction unbound": 0.028}
{"smiles": "CN1CCN(c2cccc3nc([C@H]4CCC[C@@H](c5ncccc5Cl)N4)cn23)CC1", "note": "(racemic) [Compound I-149]", "fraction unbound": 0.099}
{"smiles": "Cc1cccnc1[C@@H]1CCC[C@H](c2nc3cccc(N4CCN(C)CC4)n3c2Cl)N1", "note": "[Compound I-146]", "fraction unbound": 0.053}
{"smiles": "Cc1cccnc1[C@@H]1CCC[C@H](c2nc3cccc(N4CCN(C(C)C)CC4)n3c2Br)N1C", "note": "[Compound I-20]", "fraction unbound": 0.021}
{"smiles": "CCN1CCN(c2cccc3nc([C@H]4CCC[C@@H](c5ncccc5C)N4C)c(Br)n23)CC1", "note": "[Compound I-19]", "fraction unbound": 0.028}
{"system": "not listed separately", "assay": "Fraction of drug unbound to plasma proteins, mouse", "type": "in vitro ADME", "conditions": "Mouse plasma proteins (Table 12); read-out: Fu (p) %"}
{"smiles": "CN1CCN(c2cccc3nc([C@H]4CCC[C@@H](c5ncccc5Cl)N4)cn23)CC1", "note": "(single isomer, unassigned) [Compound I-188]", "fraction unbound": 0.143}
{"system": "not listed separately", "assay": "Fraction of drug unbound to brain proteins, mouse", "type": "in vitro ADME", "conditions": "Mouse brain proteins (Table 9); read-out: Fu (b) %"}
{"smiles": "Cc1cccnc1[C@@H]1CCC[C@H](c2cn3c(N4CCN(C)CC4)cccc3n2)N1", "note": "[Compound I-187]", "fraction unbound": 0.071}
{"smiles": "Cc1cccnc1[C@@H]1CCC[C@H](c2nc3cccc(N4CCN(C)CC4)n3c2Cl)N1C", "note": "[Compound I-18]", "fraction unbound": 0.002}
{"smiles": "Cc1cccnc1[C@@H]1CCC[C@H](c2nc3cccc(N4CCC(N(C)C)CC4)n3c2Cl)N1C", "note": "[Compound I-114]", "fraction unbound": 0.003}
{"smiles": "CN1CCN(c2cccc3nc([C@H]4CCC[C@@H](c5ncccc5Cl)N4)cn23)CC1", "note": "(racemic) [Compound I-149]", "fraction unbound": 0.026}
{"smiles": "Cc1cccnc1[C@@H]1CCC[C@H](c2nc3cccc(N4CCN(C)CC4)n3c2Cl)N1", "note": "[Compound I-146]", "fraction unbound": 0.006}
{"smiles": "Cc1cccnc1[C@@H]1CCC[C@H](c2nc3cccc(N4CCN(C(C)C)CC4)n3c2Br)N1C", "note": "[Compound I-20]", "fraction unbound": 0.001}
{"smiles": "CCN1CCN(c2cccc3nc([C@H]4CCC[C@@H](c5ncccc5C)N4C)c(Br)n23)CC1", "note": "[Compound I-19]", "fraction unbound": 0.001}
{"system": "not listed separately", "assay": "Fraction of drug unbound to brain proteins, mouse", "type": "in vitro ADME", "conditions": "Mouse brain proteins (Table 12); read-out: Fu (b) %"}
{"smiles": "CN1CCN(c2cccc3nc([C@H]4CCC[C@@H](c5ncccc5Cl)N4)cn23)CC1", "note": "(single isomer, unassigned) [Compound I-188]", "fraction unbound": 0.054}
{"system": "not listed separately", "assay": "in vitro", "conditions": "human, Caco-2, pH 7.4", "method_in_brief": "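Compounds at 10 μM in HBSS pH 7.4 (0.1–0.3% DMSO) were dosed on Caco-2 monolayers, apical-to-basolateral and basolateral-to-apical, for 90 min at 37 °C, in duplicate. Monolayer integrity was checked by TEER and lucifer yellow flux, read by fluorescence at 485/535 nm. Compound was quantified by LC-MS/MS and Papp calculated.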", "units": {"Papp A→B at 90 min, 10 μM": "×10⁻⁶ cm/s", "Papp B→A at 90 min, 10 μM": "×10⁻⁶ cm/s"}}
{"smiles": "Cc1cccnc1[C@@H]1CCC[C@H](c2cn3c(N4CCN(C)CC4)cccc3n2)N1", "note": "[Compound I-187]", "Papp A→B at 90 min, 10 μM": "0.1 to 10", "Papp B→A at 90 min, 10 μM": "10 to 30", "efflux ratio at 90 min, 10 μM": "0.1 to 10"}
{"smiles": "Cc1cccnc1[C@@H]1CCC[C@H](c2nc3cccc(N4CCN(C)CC4)n3c2Cl)N1C", "note": "[Compound I-18]", "Papp A→B at 90 min, 10 μM": "0.1 to 10", "Papp B→A at 90 min, 10 μM": "0.1 to 10", "efflux ratio at 90 min, 10 μM": "0.1 to 10"}
{"smiles": "Cc1cccnc1[C@@H]1CCC[C@H](c2cn3c(-c4cccnc4)cccc3n2)N1C", "note": "[Compound I-6]", "Papp A→B at 90 min, 10 μM": "10 to 30", "Papp B→A at 90 min, 10 μM": "10 to 30", "efflux ratio at 90 min, 10 μM": "0.1 to 10"}
{"smiles": "Cc1cccnc1[C@@H]1CCC[C@H](c2nc3cccc(N4CCC(N(C)C)CC4)n3c2Cl)N1C", "note": "[Compound I-114]", "Papp A→B at 90 min, 10 μM": "0.1 to 10", "Papp B→A at 90 min, 10 μM": "0.1 to 10", "efflux ratio at 90 min, 10 μM": "0.1 to 10"}
{"smiles": "CN1CCN(c2cccc3nc([C@H]4CCC[C@@H](c5ncccc5Cl)N4)cn23)CC1", "note": "(racemic) [Compound I-149]", "Papp A→B at 90 min, 10 μM": "10 to 30", "Papp B→A at 90 min, 10 μM": "10 to 30", "efflux ratio at 90 min, 10 μM": "0.1 to 10"}
{"smiles": "CN1CCN(c2cccc3nc([C@H]4CCC[C@@H](c5ncccc5Cl)N4)cn23)CC1", "note": "(single isomer, unassigned) [Compound I-188]", "Papp A→B at 90 min, 10 μM": "10 to 30", "Papp B→A at 90 min, 10 μM": "10 to 30", "efflux ratio at 90 min, 10 μM": "0.1 to 10"}
{"smiles": "Cc1cccnc1[C@@H]1CCC[C@H](c2nc3cccc(N4CCN(C)CC4)n3c2Cl)N1", "note": "[Compound I-146]", "Papp A→B at 90 min, 10 μM": "10 to 30", "Papp B→A at 90 min, 10 μM": "10 to 30", "efflux ratio at 90 min, 10 μM": "0.1 to 10"}
{"smiles": "Cc1cccnc1[C@@H]1CCC[C@H](c2nc3cccc(N4CCN(C(C)C)CC4)n3c2Br)N1C", "note": "[Compound I-20]", "Papp A→B at 90 min, 10 μM": "0.1 to 10", "Papp B→A at 90 min, 10 μM": "0.1 to 10", "efflux ratio at 90 min, 10 μM": "0.1 to 10"}
{"smiles": "CN1CCN(c2cccc3nc([C@@H]4CCC[C@H](c5ncccc5Cl)N4)cn23)CC1", "note": "(single isomer, unassigned) [Compound I-189]", "Papp A→B at 90 min, 10 μM": "10 to 30", "Papp B→A at 90 min, 10 μM": "10 to 30", "efflux ratio at 90 min, 10 μM": "0.1 to 10"}
{"smiles": "CCN1CCN(c2cccc3nc([C@H]4CCC[C@@H](c5ncccc5C)N4C)c(Br)n23)CC1", "note": "[Compound I-19]", "Papp A→B at 90 min, 10 μM": "0.1 to 10", "Papp B→A at 90 min, 10 μM": "0.1 to 10", "efflux ratio at 90 min, 10 μM": "0.1 to 10"}
{"target": "Jurkat cells expressing CXCR4 (Homo sapiens (Human), UniProt P61073)", "sequence (P61073 whole entry)": "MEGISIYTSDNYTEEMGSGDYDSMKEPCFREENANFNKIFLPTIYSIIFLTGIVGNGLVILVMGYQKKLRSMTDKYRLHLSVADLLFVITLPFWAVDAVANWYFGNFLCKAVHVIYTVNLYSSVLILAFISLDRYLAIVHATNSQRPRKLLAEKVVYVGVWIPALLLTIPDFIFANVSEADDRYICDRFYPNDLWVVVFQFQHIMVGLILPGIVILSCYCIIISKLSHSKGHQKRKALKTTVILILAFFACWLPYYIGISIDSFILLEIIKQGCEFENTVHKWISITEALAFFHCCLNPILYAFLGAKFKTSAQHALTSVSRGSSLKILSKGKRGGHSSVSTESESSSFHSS", "assay": "Chemokine (CXCL12-AF647) binding inhibition assay", "conditions": "CXCL12-AF647 25 ng/mL, read-out: IC50 CXCL-12 binding Jurkat", "method_in_brief": "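Cells in HBSS, 20 mM HEPES, 0.2% BSA, pH 7.4, preincubated 15 min at room temperature with compound, then 25 ng/mL CXCL12-AF647 for 30 min. After washing and paraformaldehyde fixation, bound ligand read by flow cytometry; percent inhibition calculated from MFI relative to unlabeled and ligand-only controls.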", "units": {"IC50": "nM"}}
{"smiles": "Cc1cccnc1[C@@H]1CCC[C@H](c2cn3c(N4CCN(C)CC4)cccc3n2)N1", "note": "[Compound I-187]", "IC50": "0.01 to 100"}
{"smiles": "Cc1cccnc1[C@@H]1CCC[C@H](c2nc3cccc(N4CCN(C)CC4)n3c2Cl)N1C", "note": "[Compound I-18]", "IC50": "0.01 to 100"}
{"smiles": "Cc1cccnc1[C@@H]1CCC[C@H](c2cn3c(-c4cccnc4)cccc3n2)N1C", "note": "[Compound I-6]", "IC50": "100 to 1000"}
{"smiles": "Cc1cccnc1[C@@H]1CCC[C@H](c2nc3cccc(N4CCC(N(C)C)CC4)n3c2Cl)N1C", "note": "[Compound I-114]", "IC50": "0.01 to 100"}
{"smiles": "CN1CCN(c2cccc3nc([C@H]4CCC[C@@H](c5ncccc5Cl)N4)cn23)CC1", "note": "(racemic) [Compound I-149]", "IC50": "0.01 to 100"}
{"smiles": "CN1CCN(c2cccc3nc([C@H]4CCC[C@@H](c5ncccc5Cl)N4)cn23)CC1", "note": "(single isomer, unassigned) [Compound I-188]", "IC50": "0.01 to 100"}
{"smiles": "Cc1cccnc1[C@@H]1CCC[C@H](c2nc3cccc(N4CCN(C)CC4)n3c2Cl)N1", "note": "[Compound I-146]", "IC50": "0.01 to 100"}
{"smiles": "Cc1cccnc1[C@@H]1CCC[C@H](c2nc3cccc(N4CCN(C(C)C)CC4)n3c2Br)N1C", "note": "[Compound I-20]", "IC50": "0.01 to 100"}
{"smiles": "CN1CCN(c2cccc3nc([C@@H]4CCC[C@H](c5ncccc5Cl)N4)cn23)CC1", "note": "(single isomer, unassigned) [Compound I-189]", "IC50": "0.01 to 100"}
{"smiles": "CCN1CCN(c2cccc3nc([C@H]4CCC[C@@H](c5ncccc5C)N4C)c(Br)n23)CC1", "note": "[Compound I-19]", "IC50": "0.01 to 100"}
{"target": "CXCR-4 transfected U87 cell line (U87.CXCR4) (Homo sapiens (Human), UniProt P61073)", "sequence (P61073 whole entry)": "as above", "assay": "Intracellular CXCL-12-induced calcium mobilization assay (FLIPR)", "type": "cell-based", "conditions": "U87.CXCR4 cells, CXCL-12 25-50 ng/mL; read-out: IC50 CXCL-12 Ca2+ flux U87.CXCR4+", "method_in_brief": "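U87.CXCR4 cells were seeded at 20,000 per well, cultured 12 hours, then loaded with 4 μM Fluo-2 AM for 45 min at 37° C. in HBSS with 20 mM HEPES and 0.2% BSA, pH 7.4. Calcium flux triggered by CXCL-12 (25-50 ng/mL) was tracked over time by FLIPR fluorescence at 37° C.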", "units": {"IC50": "nM"}}
{"smiles": "Cc1cccnc1[C@@H]1CCC[C@H](c2cn3c(N4CCN(C)CC4)cccc3n2)N1", "note": "[Compound I-187]", "IC50": "0.01 to 100"}
{"smiles": "Cc1cccnc1[C@@H]1CCC[C@H](c2nc3cccc(N4CCN(C)CC4)n3c2Cl)N1C", "note": "[Compound I-18]", "IC50": "0.01 to 100"}
{"smiles": "Cc1cccnc1[C@@H]1CCC[C@H](c2cn3c(-c4cccnc4)cccc3n2)N1C", "note": "[Compound I-6]", "IC50": "0.01 to 100"}
{"smiles": "Cc1cccnc1[C@@H]1CCC[C@H](c2nc3cccc(N4CCC(N(C)C)CC4)n3c2Cl)N1C", "note": "[Compound I-114]", "IC50": "0.01 to 100"}
{"smiles": "CN1CCN(c2cccc3nc([C@H]4CCC[C@@H](c5ncccc5Cl)N4)cn23)CC1", "note": "(racemic) [Compound I-149]", "IC50": "0.01 to 100"}
{"smiles": "CN1CCN(c2cccc3nc([C@H]4CCC[C@@H](c5ncccc5Cl)N4)cn23)CC1", "note": "(single isomer, unassigned) [Compound I-188]", "IC50": "0.01 to 100"}
{"smiles": "Cc1cccnc1[C@@H]1CCC[C@H](c2nc3cccc(N4CCN(C)CC4)n3c2Cl)N1", "note": "[Compound I-146]", "IC50": "100 to 1000"}
{"smiles": "Cc1cccnc1[C@@H]1CCC[C@H](c2nc3cccc(N4CCN(C(C)C)CC4)n3c2Br)N1C", "note": "[Compound I-20]", "IC50": "100 to 1000"}
{"smiles": "CN1CCN(c2cccc3nc([C@@H]4CCC[C@H](c5ncccc5Cl)N4)cn23)CC1", "note": "(single isomer, unassigned) [Compound I-189]", "IC50": "100 to 1000"}
{"smiles": "CCN1CCN(c2cccc3nc([C@H]4CCC[C@@H](c5ncccc5C)N4C)c(Br)n23)CC1", "note": "[Compound I-19]", "IC50": "0.01 to 100"}
